Like-named read-outs stand apart in the source and are kept apart here.
Legend:
[1] = tested on: MCF-7 (breast); assay: MTT assay of cell viability; conditions: Homo sapiens, MCF7, 72 h, MCF-7; 72 h of incubation, M ± SD
[2] = tested on: RPMI-8226 (Leukemia); assay: NCI five-dose SRB assay; type: cell-based; conditions: Homo sapiens, 48 h
[3] = tested on: SNB-19 (CNS Cancer); assay: NCI five-dose SRB assay; type: cell-based; conditions: Homo sapiens, 48 h
[4] = tested on: KM12 (Colon Cancer); assay: NCI five-dose SRB assay; type: cell-based; conditions: Homo sapiens, 48 h
[5] = tested on: MCF-7 cells; assay: Clonogenic assay; type: cell-based, human; conditions: 10 days
Method: This assay essentially tests every cell in the population for its ability to undergo “unlimited” division. […] At 1 µM concentration, it reduced the ability of the MCF-7 single cell to grow into a colony to 36%. […] With a concentration equivalent to 10 µM of the compound 4, the DMSO increased the cell’s ability to grow in colony.
MCF-7 cells were seeded in triplicate in 6-well plates (CytoONE, STARLAB International GmbH, Germany) at a density of 500 cells per well. After 24 h incubation, the compound 4 was added in 1 and 10 μM concentrations and cells were treated for 10 days. Colonies containing ≥ 50 cells were fixed with 50% (v/v) methanol in the PBS and stained with crystal violet (Sigma-Aldrich, Burlington, MA, USA). Stained colonies were counted and expressed as a fraction of the untreated control.

[6] = tested on: Ovarian Cancer cell lines (MG_MID); assay: NCI five-dose SRB assay; type: cell-based; conditions: Homo sapiens, 48 h
[7] = tested on: SK Mel-2 (Melanoma); assay: NCI one-dose SRB assay; conditions: 10 μM, 48 h
[8] = tested on: SNB-75 (CNS Cancer); assay: NCI five-dose SRB assay; type: cell-based; conditions: Homo sapiens, 48 h
[9] = tested on: MOLT-4 (Leukemia); assay: NCI five-dose SRB assay; type: cell-based; conditions: Homo sapiens, 48 h
[10] = tested on: TK-10 (Renal Cancer); assay: NCI five-dose SRB assay; type: cell-based; conditions: Homo sapiens, 48 h
[11] = tested on: UO-31 (Renal Cancer); assay: NCI five-dose SRB assay; type: cell-based; conditions: Homo sapiens, 48 h
[12] = tested on: U251 (CNS Cancer); assay: NCI five-dose SRB assay; type: cell-based; conditions: Homo sapiens, U-251, 48 h
[13] = tested on: Colon Cancer cell lines (MG_MID); assay: NCI five-dose SRB assay; type: cell-based; conditions: Homo sapiens, 48 h
[14] = tested on: KB3-1 (cervix); assay: MTT assay of cell viability; conditions: Homo sapiens, KB 3-1, 72 h, KB3-1; 72 h of incubation, M ± SD
[15] = tested on: NCI-H460 (Non-Small Cell Lung Cancer); assay: NCI one-dose SRB assay; conditions: 10 μM, 48 h
Method: Tested compounds were added to the culture at a single concentration (10^−5 M) and the cultures were incubated for 48 h. End point determinations were made with a protein binding dye, Sulphorhodamine B (SRB). […] The percentage growth was evaluated spectrophotometrically versus controls not treated with test agents.

[16] = tested on: Jurkat (leukemia); assay: MTT assay of cell viability; conditions: Homo sapiens, 72 h
[17] = tested on: SK_MEL-5 (Melanoma); assay: NCI five-dose SRB assay; type: cell-based; conditions: Homo sapiens, SK-MEL-5, 48 h
[18] = tested on: NCI-H522 (Non-Small Cell Lung Cancer); assay: NCI five-dose SRB assay; type: cell-based; conditions: Homo sapiens, 48 h
[19] = tested on: panel of cancer cell lines; assay: MTT assay, summary over the tumor cell lines; conditions: Homo sapiens, 72 h, read-out: IC50 toward tumor cells (depending on tumor cell line)
[20] = tested on: MCF-7 (Breast Cancer); assay: NCI five-dose SRB assay; type: cell-based; conditions: Homo sapiens, MCF7, 48 h
[21] = tested on: DU-145 (Prostate Cancer); assay: NCI five-dose SRB assay; type: cell-based; conditions: Homo sapiens, 48 h
[22] = tested on: MCF-7 breast cancer cells; assay: Mitochondrial membrane potential, JC-1 (flow cytometry); type: cell-based, human; conditions: MCF-7, 5 µM, 24 h, control 5.1 ± 0.7%
Method: A decrease in the mitochondrial membrane potential (MMP, ΔΨm) is one of the earliest changes observed at apoptosis. […] The MCF-7 cells had depolarized mitochondria, reaching 25.3 ± 1.5% and 24.7 ± 0.4% of the cell population treated with the compound 4 and 7, respectively. In the control, there were only 5.1 ± 0.7% cells with a decreased ΔΨm.
Disruption of the MMP was assessed using the lipophilic cationic probe 5,5,6,6-tetrachloro-1,1,3,3-tetraethylbenzimidazolcarbocyanine iodide (JC-1 MitoScreen kit; BD Biosciences San Diego, CA, USA), as described previously. The entire assay was performed according to the manufacturer’s instructions provided with the purchased kit. […] Briefly, unfixed MCF-7 cells were washed and resuspended in the PBS supplemented with the JC-1 dye. Then, cells were incubated for 15 min at room temperature (RT) in the dark, washed, and resuspended in the PBS for the immediate BD FACSCanto II flow cytometry analysis.

[23] = tested on: SK-OV-3 (Ovarian Cancer); assay: NCI five-dose SRB assay; type: cell-based; conditions: Homo sapiens, 48 h
[24] = tested on: Breast Cancer cell lines (MG_MID); assay: NCI five-dose SRB assay; type: cell-based; conditions: Homo sapiens, 48 h
[25] = tested on: SK-OV-3 (ovarian); assay: MTT assay of cell viability; conditions: Homo sapiens, SK-OV-3, 72 h
[26] = tested on: NCI-H23 (Non-Small Cell Lung Cancer); assay: NCI five-dose SRB assay; type: cell-based; conditions: Homo sapiens, 48 h
[27] = tested on: NCI-H226 (Non-Small Cell Lung Cancer); assay: NCI five-dose SRB assay; type: cell-based; conditions: Homo sapiens, 48 h
[28] = tested on: MALME-3M (Melanoma); assay: NCI five-dose SRB assay; type: cell-based; conditions: Homo sapiens, 48 h
[29] = tested on: T-47D (Breast Cancer); assay: NCI five-dose SRB assay; type: cell-based; conditions: Homo sapiens, T47D, 48 h
[30] = tested on: SF-539 (CNS Cancer); assay: NCI five-dose SRB assay; type: cell-based; conditions: Homo sapiens, 48 h
[31] = tested on: CNS Cancer cell lines (MG_MID); assay: NCI five-dose SRB assay; type: cell-based; conditions: Homo sapiens, 48 h
[32] = tested on: HL-60(TB) (Leukemia); assay: NCI five-dose SRB assay; type: cell-based; conditions: Homo sapiens, 48 h
[33] = tested on: MCF-7 cells; assay: Chemical synthetic lethality: MTT after preincubation with MGMT inhibitor Lomeguatrib; type: cell-based, human; conditions: for IC50: Homo sapiens, MCF7, 72 h MTT

SMILES: CCOC(=O)c1ccc(NC(=O)CSC(CC(=O)c2sc(Nc3ccccn3)nc2C)c2ccccc2F)cc1 (stereo not shown) [Compound 4, Ethyl 4-[[2-[1-(2-Fluorophenyl)-3-[4-methyl-2-(2-pyridylamino)thiazol-5-yl]-3-oxopropyl]sulfanylacetyl]amino]benzoate]
- IC50 [1]: 2.79 ± 1.31 µM
- GI50 [2]: 8.29 µM
- GI50 [3]: 36.9 µM
- GI50 [4]: 55.6 µM
- ability of single cell to grow into a colony (compared with control) ([5]; MCF-7, 1 µM): 36%
- colony formation ([5]; MCF-7, 10 µM): No colony formation was observed
- GI50 [6]: 41.1 µM
- Growth % [7]: −31.22%
- GI50 [8]: 3.58 µM
- GI50 [9]: 32.2 µM
- GI50 [10]: 82.3 µM
- GI50 [11]: 3.19 µM
- GI50 [12]: 47.8 µM
- GI50 [13]: 51.6 µM
- IC50 [14]: 7.63 ± 0.38 µM
- Growth % [15]: −40.69%
- IC50 [16]: 5.36 ± 0.16 µM
- GI50 [17]: 18.6 µM
- GI50 [18]: 21.6 µM
- IC50 [19]: 0.57 to 7.8 µM
- GI50 [20]: 15.4 µM
- GI50 [21]: 67.2 µM
- cells with depolarized mitochondria (decreased ΔΨm) [22]: 25.3 ± 1.5%
- GI50 [23]: 26 µM
- GI50 [24]: 14.4 µM
- IC50 [25]: 7.87 ± 0.23 µM
- GI50 [26]: 22.7 µM
- GI50 [27]: 2.52 µM
- GI50 [28]: 25.4 µM
- GI50 [29]: 18 µM
- GI50 [30]: 32.5 µM
- GI50 [31]: 32.7 µM
- GI50 [32]: 21.4 µM
- IC50 ([33]; MCF-7, 3 h preincubation with Lomeguatrib, read-out: IC50 with the MGMT inhibitor): 0.72 µM
- IC50 ([33]; MCF-7, compound alone, read-out: IC50): 2.28 µM
- enhancement of sensitivity by Lomeguatrib preincubation ([33]; MCF-7): 3 times
- combination effect with the MGMT inhibitor ([33]; MCF-7, compared with individual treatments): synergistic activity
